For 11 compounds, inhibition and IC50 results are on record in patent US20260217683A1, “PYRIDAZINONE HETEROCYCLIC COMPOUND MYOSIN II INHIBITOR AND USE THEREOF” (Xizang Haisco Pharmaceutical Co., Ltd., priority 2023, published 2026).

One assay addresses T1, cardiac myosin SII (Bos taurus, UniProt Q9BE39).
T1 construct: purchased Cytoskeleton #MYO3-A
The experiment in a line: Inhibition of hydrolysis of ATP by cardiac myosin SII. In kind it is biochemical. The conditions noted are these: 100 μM compound. The procedure, abridged:
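Bovine cardiac myosin with preformed F-actin in 15 mM Tris-HCl pH 7.5, 10 mM KCl, 2 mM MgCl2, 0.1 mM EGTA; compounds at 100 μM final, ATP from 3 mM working solution, 2 h at 37 °C. Released Pi measured colorimetrically at 650 nm against a Pi standard curve; % inhibition vs. DMSO control.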

The target of the next assay is T2, smooth muscle myosin S1 (Gallus gallus, UniProt P10587).
T2 construct: purchased Cytoskeleton #CS-MYS05
The experiment in a line: Inhibition of hydrolysis of ATP by smooth muscle myosin S1 fragments. In kind it is biochemical. The conditions noted are these: 100 μM compound. The procedure, abridged: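 Smooth muscle myosin S1 fragment (0.7 mg/mL in PM12 buffer with 1 mM DTT) was mixed with compound and F-actin polymer prepared from cardiac actin, then 5 mM ATP working solution started the reaction at 37° C. for 20 min. Released Pi was measured with CytoPhos reagent at 650 nm against a standard curve, and inhibition was calculated relative to positive control wells.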

In the next assay the target is T3, CYP3A4 (Homo sapiens, UniProt P08684).
T3 construct: incubated with human liver microsomes and test compounds of different concentrations; from tissue; host or cells: human liver microsomes
Nature of the assay: CYP450 enzyme inhibition, human liver microsomes, CYP3A4. Type of assay: in vitro ADME. The procedure, abridged: (§1)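 Human liver microsomes were incubated with isoform-specific probe substrates and a range of test compound concentrations, with the reaction started by NADPH. Probe metabolites were quantified by LC-MS/MS to derive enzyme activity, and IC50 values were calculated per isoform.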
Background: Liver microsomes are a subcellular fraction often used to study metabolism.

For a further assay, the target named is T4, CYP2C9 (Homo sapiens, UniProt P11712).
T4 construct: incubated with human liver microsomes and test compounds of different concentrations; from tissue; host or cells: human liver microsomes
Nature of the assay: CYP450 enzyme inhibition, human liver microsomes, CYP2C9. Type of assay: in vitro ADME. In a few lines: as §1

Another assay concerns the target T5, CYP1A2 (Homo sapiens, UniProt P05177).
T5 construct: incubated with human liver microsomes and test compounds of different concentrations; from tissue; host or cells: human liver microsomes
T5 sequence (P05177 1-516): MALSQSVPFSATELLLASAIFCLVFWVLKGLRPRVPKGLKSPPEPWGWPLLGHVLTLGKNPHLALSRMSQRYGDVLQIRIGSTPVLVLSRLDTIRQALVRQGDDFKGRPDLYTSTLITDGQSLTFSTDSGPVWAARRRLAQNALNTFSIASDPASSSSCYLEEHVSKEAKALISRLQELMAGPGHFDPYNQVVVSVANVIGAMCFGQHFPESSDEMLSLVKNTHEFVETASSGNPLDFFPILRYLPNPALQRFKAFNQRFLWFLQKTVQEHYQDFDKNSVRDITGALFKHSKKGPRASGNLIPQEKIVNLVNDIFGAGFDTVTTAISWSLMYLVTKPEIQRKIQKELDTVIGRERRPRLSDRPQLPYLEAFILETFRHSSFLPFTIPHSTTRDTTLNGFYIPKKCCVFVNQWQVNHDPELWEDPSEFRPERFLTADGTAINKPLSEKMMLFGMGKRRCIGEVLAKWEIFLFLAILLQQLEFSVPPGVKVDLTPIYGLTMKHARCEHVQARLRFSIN
Nature of the assay: CYP450 enzyme inhibition, human liver microsomes, CYP1A2. Type of assay: in vitro ADME. The procedure, abridged:
as §1

The target in the next assay is T6, CYP2D6 (Homo sapiens, UniProt P10635).
T6 construct: incubated with human liver microsomes and test compounds of different concentrations; from tissue; host or cells: human liver microsomes
The experiment in a line: CYP450 enzyme inhibition, human liver microsomes, CYP2D6. In kind it is in vitro ADME. The procedure, abridged: as §1

T6 sequence (P10635 whole entry): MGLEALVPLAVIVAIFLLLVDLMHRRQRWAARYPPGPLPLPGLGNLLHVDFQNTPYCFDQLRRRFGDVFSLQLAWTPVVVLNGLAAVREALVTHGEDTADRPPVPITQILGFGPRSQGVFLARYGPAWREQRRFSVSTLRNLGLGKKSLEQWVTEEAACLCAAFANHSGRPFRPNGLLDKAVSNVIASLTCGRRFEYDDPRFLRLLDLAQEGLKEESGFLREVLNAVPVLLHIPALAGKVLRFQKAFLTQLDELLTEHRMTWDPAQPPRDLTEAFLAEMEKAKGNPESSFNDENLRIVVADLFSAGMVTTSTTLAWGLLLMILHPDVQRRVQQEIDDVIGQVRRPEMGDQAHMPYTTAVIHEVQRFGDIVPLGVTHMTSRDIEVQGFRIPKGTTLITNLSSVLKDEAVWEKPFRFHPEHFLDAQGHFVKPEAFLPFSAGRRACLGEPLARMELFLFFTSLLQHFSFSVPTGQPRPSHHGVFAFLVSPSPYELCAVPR
T1 sequence (Q9BE39 whole entry): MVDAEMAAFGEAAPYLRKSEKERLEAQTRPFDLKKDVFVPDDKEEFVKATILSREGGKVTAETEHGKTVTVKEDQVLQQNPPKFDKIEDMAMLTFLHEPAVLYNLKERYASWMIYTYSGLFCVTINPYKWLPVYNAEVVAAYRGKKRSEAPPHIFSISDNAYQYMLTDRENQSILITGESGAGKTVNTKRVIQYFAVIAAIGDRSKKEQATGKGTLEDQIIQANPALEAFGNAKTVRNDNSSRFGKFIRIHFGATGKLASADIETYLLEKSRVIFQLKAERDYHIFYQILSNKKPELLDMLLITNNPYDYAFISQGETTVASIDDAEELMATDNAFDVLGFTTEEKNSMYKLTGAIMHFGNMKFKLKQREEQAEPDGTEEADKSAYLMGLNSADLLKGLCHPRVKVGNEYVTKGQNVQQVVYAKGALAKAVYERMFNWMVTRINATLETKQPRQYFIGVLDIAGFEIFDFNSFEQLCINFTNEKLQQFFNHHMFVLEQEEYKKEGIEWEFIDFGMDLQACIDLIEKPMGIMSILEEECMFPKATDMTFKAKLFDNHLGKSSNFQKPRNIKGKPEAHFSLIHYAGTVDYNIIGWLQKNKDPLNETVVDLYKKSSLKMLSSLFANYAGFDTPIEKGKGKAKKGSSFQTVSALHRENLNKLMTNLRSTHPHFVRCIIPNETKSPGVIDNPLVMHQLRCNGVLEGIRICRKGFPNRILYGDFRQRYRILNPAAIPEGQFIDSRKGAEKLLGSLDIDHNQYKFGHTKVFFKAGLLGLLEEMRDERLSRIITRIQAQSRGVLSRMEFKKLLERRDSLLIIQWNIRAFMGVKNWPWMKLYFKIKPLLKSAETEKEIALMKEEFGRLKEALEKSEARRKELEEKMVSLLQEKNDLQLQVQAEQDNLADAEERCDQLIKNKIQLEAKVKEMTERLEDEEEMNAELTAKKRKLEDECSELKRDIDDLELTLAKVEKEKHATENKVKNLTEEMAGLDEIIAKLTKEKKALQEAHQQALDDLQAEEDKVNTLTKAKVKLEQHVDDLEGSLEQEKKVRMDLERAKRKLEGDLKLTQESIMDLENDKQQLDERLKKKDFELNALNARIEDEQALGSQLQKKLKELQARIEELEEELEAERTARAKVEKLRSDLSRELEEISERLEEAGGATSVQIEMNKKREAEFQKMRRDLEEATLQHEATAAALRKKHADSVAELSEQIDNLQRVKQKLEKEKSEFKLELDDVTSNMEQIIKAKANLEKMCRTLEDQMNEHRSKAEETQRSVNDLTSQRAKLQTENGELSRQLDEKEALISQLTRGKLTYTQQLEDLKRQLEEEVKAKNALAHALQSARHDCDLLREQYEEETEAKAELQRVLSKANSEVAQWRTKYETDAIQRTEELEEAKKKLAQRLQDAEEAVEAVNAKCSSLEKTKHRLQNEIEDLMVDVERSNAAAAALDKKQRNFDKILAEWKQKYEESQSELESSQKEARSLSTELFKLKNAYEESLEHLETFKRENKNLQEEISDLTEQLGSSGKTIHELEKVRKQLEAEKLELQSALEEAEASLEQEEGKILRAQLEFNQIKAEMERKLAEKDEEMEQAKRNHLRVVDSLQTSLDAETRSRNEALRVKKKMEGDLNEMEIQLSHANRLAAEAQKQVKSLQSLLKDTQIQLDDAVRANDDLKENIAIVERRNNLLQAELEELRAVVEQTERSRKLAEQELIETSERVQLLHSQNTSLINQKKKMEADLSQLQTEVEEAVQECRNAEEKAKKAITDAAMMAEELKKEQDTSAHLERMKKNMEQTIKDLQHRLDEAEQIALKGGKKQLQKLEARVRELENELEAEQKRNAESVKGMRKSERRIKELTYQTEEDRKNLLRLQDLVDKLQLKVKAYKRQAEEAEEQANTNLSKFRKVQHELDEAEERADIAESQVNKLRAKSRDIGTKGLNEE
T1 sequence (P85100 whole entry partner): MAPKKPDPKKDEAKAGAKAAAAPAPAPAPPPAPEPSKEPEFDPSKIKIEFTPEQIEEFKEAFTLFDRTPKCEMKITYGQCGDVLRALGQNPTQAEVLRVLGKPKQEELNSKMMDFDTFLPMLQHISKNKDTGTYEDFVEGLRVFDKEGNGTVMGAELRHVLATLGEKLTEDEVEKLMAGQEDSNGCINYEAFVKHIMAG
T1 sequence (Q3SZE5 whole entry partner): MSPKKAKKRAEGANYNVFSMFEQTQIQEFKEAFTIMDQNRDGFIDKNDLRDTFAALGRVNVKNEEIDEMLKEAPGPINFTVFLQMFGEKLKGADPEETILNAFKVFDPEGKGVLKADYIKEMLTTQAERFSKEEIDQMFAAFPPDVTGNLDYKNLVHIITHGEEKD
T3 sequence (P08684 whole entry): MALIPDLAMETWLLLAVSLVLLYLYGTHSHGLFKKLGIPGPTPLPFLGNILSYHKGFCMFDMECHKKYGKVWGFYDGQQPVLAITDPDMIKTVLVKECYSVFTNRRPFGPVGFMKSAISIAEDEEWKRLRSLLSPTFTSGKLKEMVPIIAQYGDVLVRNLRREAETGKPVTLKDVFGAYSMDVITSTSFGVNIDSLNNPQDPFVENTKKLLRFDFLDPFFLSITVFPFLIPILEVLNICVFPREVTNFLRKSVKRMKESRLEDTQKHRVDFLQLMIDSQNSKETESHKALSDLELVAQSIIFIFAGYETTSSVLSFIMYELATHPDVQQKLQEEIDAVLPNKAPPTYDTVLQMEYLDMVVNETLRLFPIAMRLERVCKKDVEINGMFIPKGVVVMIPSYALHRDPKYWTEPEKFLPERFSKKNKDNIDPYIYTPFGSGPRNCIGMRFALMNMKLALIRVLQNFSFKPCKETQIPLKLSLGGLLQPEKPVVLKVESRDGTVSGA
T2 sequence (P10587 84-789 limits assumed): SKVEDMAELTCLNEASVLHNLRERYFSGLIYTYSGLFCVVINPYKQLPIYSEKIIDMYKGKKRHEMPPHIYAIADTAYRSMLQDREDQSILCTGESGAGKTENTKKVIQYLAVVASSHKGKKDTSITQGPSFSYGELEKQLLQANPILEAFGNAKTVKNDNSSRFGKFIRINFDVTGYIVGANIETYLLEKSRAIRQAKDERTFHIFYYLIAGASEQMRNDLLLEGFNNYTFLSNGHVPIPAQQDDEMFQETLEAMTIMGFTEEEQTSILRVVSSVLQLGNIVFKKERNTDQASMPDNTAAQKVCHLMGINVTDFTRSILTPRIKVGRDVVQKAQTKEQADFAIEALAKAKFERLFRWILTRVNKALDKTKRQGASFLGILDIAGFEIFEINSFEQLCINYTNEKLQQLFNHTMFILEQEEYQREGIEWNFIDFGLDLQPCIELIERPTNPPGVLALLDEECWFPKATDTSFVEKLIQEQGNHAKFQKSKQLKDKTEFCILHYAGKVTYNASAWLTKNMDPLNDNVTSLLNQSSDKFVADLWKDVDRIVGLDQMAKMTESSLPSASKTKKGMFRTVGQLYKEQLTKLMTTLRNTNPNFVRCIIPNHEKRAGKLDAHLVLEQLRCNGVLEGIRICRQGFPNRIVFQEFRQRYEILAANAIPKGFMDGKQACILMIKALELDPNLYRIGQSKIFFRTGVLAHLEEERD
T2 sequence (P02607 whole entry partner): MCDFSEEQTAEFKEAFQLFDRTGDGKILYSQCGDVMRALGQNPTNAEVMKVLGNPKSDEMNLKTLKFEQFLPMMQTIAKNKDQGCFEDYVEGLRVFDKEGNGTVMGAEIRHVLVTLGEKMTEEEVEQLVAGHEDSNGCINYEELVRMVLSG
T4 sequence (P11712 whole entry): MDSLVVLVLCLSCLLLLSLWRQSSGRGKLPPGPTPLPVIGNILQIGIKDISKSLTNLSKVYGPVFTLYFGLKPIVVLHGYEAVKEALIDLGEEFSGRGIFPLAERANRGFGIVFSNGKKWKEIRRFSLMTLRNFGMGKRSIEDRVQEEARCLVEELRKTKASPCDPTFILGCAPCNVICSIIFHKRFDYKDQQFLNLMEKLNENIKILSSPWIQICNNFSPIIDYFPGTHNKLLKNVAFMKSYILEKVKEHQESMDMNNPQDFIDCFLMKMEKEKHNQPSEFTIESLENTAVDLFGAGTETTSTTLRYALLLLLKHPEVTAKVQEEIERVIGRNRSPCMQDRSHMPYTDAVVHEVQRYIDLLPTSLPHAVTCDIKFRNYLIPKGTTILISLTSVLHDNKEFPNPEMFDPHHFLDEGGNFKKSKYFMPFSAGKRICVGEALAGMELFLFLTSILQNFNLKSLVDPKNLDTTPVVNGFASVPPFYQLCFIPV

Usually inhibition stands for the relative decrease from the control value, in per cent. For `O=c1ccc(-c2cnc(OCC(F)(F)F)nc2)nn1Cc1ccc2c(c1)CCC2` [Compound 57], the inhibition at 100 µM against cardiac myosin SII came out at 1.5%; at smooth muscle myosin S1, 3.3%.
The term IC50 denotes the point on the concentration scale where inhibition reaches its midpoint. As to `O=C1CCc2ccc(Cn3nc(-c4cnc(OCC(F)(F)F)nc4)ccc3=O)cc21` [Compound 88], the IC50 at CYP3A4, on CYP2C9, at CYP1A2 and against CYP2D6 was over 30 µM each time.
Take `O=C1CCc2ccc(Cn3nc(-c4cnc(OCC(F)F)nc4)ccc3=O)cc21` [Compound 131]: the 50% inhibitory concentration (IC50) at CYP3A4, on CYP2C9, against CYP1A2 and against CYP2D6 was over 30 µM in each case. In addition, on smooth muscle myosin S1, the inhibition at 100 µM is -9%.
As to `O=C1CCc2ccc(Cn3nc(-c4cnc(OC5CC(F)(F)C5)nc4)ccc3=O)cc21` [Compound 141], the figures for the inhibition at 100 µM against cardiac myosin SII and on smooth muscle myosin S1 were 14% and 3%, respectively. In addition, the IC50 at CYP3A4, at CYP2C9, at CYP1A2 and on CYP2D6 was over 30 µM throughout.
In the case of `O=C1CCc2ccc(Cn3nc(-c4cnc(O[C@@H]5CCOC5)nc4)ccc3=O)cc21` [Compound 149], the results for the inhibition at 100 µM against cardiac myosin SII and at smooth muscle myosin S1 were 10% and 2%, respectively. The IC50 on CYP3A4, against CYP2C9, on CYP1A2 and against CYP2D6 was over 30 µM in each case.
As to `O=C1CCc2ccc(Cn3nc(-c4cnc(O[C@H]5CCOC5)nc4)ccc3=O)cc21` [Compound 150], the results for the inhibition at 100 µM against cardiac myosin SII and against smooth muscle myosin S1 were 15% and 4%, respectively.
On to `O=C1CCc2ccc(Cn3nc(-c4cnc(Oc5cncc(Cl)c5)nc4)ccc3=O)cc21` [Compound 151], for which the values for the inhibition at 100 µM against cardiac myosin SII and against smooth muscle myosin S1 were -2% and 2%, respectively. The 50% inhibitory concentration (IC50) on CYP3A4, against CYP2C9, against CYP1A2 and against CYP2D6 was over 30 µM in each case.
In the case of `N#CC1(COc2ncc(-c3ccc(=O)n(Cc4ccc5c(c4)C(=O)CC5)n3)cn2)CC1` [Compound 158], the inhibition at 100 µM on cardiac myosin SII came to 10%; against smooth muscle myosin S1, 13%. The IC50 on CYP3A4, against CYP2C9, against CYP1A2 and against CYP2D6 was over 30 µM throughout.
On to `O=C1CCc2ccc(Cn3nc(-c4cnc(OC5COCC5(F)F)nc4)ccc3=O)cc21` (stereo not drawn) [Compound 164], for which the values for the inhibition at 100 µM against cardiac myosin SII and against smooth muscle myosin S1 were 4% and 17%, respectively. Besides, the IC50 against CYP3A4, against CYP2C9, on CYP1A2 and at CYP2D6 was over 30 µM throughout.
On to `O=C1CCc2c(F)cc(Cn3nc(-c4cnc(O[C@H]5CCOC5)nc4)ccc3=O)cc21` [Compound 165], for which the 50% inhibitory concentration (IC50) against CYP3A4, against CYP2C9, against CYP1A2 and at CYP2D6 was over 30 µM in each case. Moreover, the inhibition at 100 µM at smooth muscle myosin S1 worked out at 12%.
`O=C1CCc2c(F)cc(Cn3nc(-c4cnc(OCC(F)F)nc4)ccc3=O)cc21` [Compound 167]: the inhibition at 100 µM at cardiac myosin SII was determined as 4%; at smooth muscle myosin S1, 17%. For the same compound, the IC50 against CYP3A4, at CYP2C9, against CYP1A2 and at CYP2D6 was over 30 µM each time.
